Experimental data taken from patent publication US20100041089A1, “IMPROVED METHOD FOR DETECTING CHEMICAL […]” (priority 2006, published 2010).

Test system: yeast genes (expressed mRNA)
Experiment: DNA chip measurement of expressed mRNA of yeast genes after culture with a toxic chemical substance
Format: cell-based, Saccharomyces cerevisiae S288C
Procedure: Yeast (Saccharomyces cerevisiae S288C (a SUC2mal mel gap2 CUP1)) were cultured at 25° C. on YPD medium (yeast extract 1%, polypeptone 2%, glucose 2%). One of toxic chemical substances was added to the cell at logarithmic growth phase, and the cell was further cultured for two hours. Cell was cultured without any chemical substance in the same condition, and was used as a control. Concentrations of the chemical substances were defined to inhibit the growth of the yeast but not lead to death.
After the completion of cultivation, the culture was centrifuged to collect the cells. To the cells, sodium acetate buffer (50 mM sodium acetate, 10 mM EDTA, 1% SDS) was added, and the mixture was shaken at 65° C. for five minutes, followed by returning to room temperature, and obtaining the supernatant, which procedure was repeated two times. To the supernatant, ½ amount of a solution of phenol/chloroform (1:1) was added, and the mixture was centrifuged to give a supernatant, an equal amount of chloroform was added, and the mixture was centrifuged to give a supernatant. To the supernatant, an equal amount of isopropanol containing 0.3 M sodium acetate was added, and the mixture was allowed to stand at room temperature for 30 minutes, after which the mixture was centrifuged to give sediment of the whole RNAs. Seventy % ethanol was added to the sediment, and the mixture was again centrifuged to give sediment, which was then dried and dissolved in water. mRNA was isolated from the whole RNAs as followings. In view of the fact that a poly A chain is attached to the 3′ terminus of mRNA, a polynucleotide having a poly T structure which was immobilized on the surface of latex beads was used to trap the mRNA, and then the mRNA was washed and eluted with spine column (Oligotex-dT30<Super>mRNA Purification Kit, Takara). Reverse transcription of the mRNA was conducted with a reverse transcriptase (Super Script II Reverse Transcriptase; catalogue No. 18064-014, GibcoBRL) using fluorescence-labeled nucleotides to give cDNAs that were introduced with Cy3-dUTP or Cy5-dUTP during the reverse transcription.
The labeled cDNAs were dissolved in TE buffer (10 mM Tris-HCl/1 mM EDTA, pH 8.0), and the solution was dropped on the DNA chip containing the whole genes of yeast (DNA Chip Research Inc. Japan) so that the cDNAs were hybridized on the DNA chip at 65° C. for over 12 hours. The fluoresces intensity of the DNA chip was read with a scanner, and the ratio relative to the fluorescence intensity resulting from the absence of chemical substance was estimated as the following, which is shown in Tables 1 to 9.
In the Tables, “Intensity” indicated in the rightmost column is a value of the level of expressed mRNA of each gene in control cells as divided by the average level of the expressions of the whole genes. A gene of which mRNA level is lower in control, and is higher in cases of addition of chemical substance, is especially useful in the detection of toxic substances.
Here, when a ratio of an amount of mRNA expressed in the presence of the chemical substance to an amount of mRNA expressed in the absence of the chemical substance is two or more, then it is considered significant.

N#Cc1c(Cl)c(Cl)c(Cl)c(C#N)c1Cl [(9), 2,4,5,6-Tetrachloro-1,3-benzenedicarbonitrile]
The level of expressed mRNA in the presence of chemical substance/The level of expressed mRNA in the absence of chemical substance (yeast gene YAL034C, cultured two hours with substance): 3.0 | The level of expressed mRNA in the presence of chemical substance/The level of expressed mRNA in the absence of chemical substance (yeast gene YAL053W, cultured two hours with substance): 1.4 | The level of expressed mRNA in the presence of chemical substance/The level of expressed mRNA in the absence of chemical substance (yeast gene YAR027W, cultured two hours with substance): 2.3 | The level of expressed mRNA in the presence of chemical substance/The level of expressed mRNA in the absence of chemical substance (yeast gene YAR028W, cultured two hours with substance): 1.0 | The level of expressed mRNA in the presence of chemical substance/The level of expressed mRNA in the absence of chemical substance (yeast gene YBL048W, cultured two hours with substance): 7.2 | The level of expressed mRNA in the presence of chemical substance/The level of expressed mRNA in the absence of chemical substance (yeast gene YBL065W, cultured two hours with substance): 20.8 | The level of expressed mRNA in the presence of chemical substance/The level of expressed mRNA in the absence of chemical substance (yeast gene YBL075C (stress protein genes)): 60.3 | The level of expressed mRNA in the presence of chemical substance/The level of expressed mRNA in the absence of chemical substance (yeast gene YBL107C, cultured two hours with substance): 1.0 | The level of expressed mRNA in the presence of chemical substance/The level of expressed mRNA in the absence of chemical substance (yeast gene YBR008C (transport facilitation protein gene)): 54.6 | The level of expressed mRNA in the presence of chemical substance/The level of expressed mRNA in the absence of chemical substance (yeast gene YBR072W (stress protein genes)): 29.4 | The level of expressed mRNA in the presence of chemical substance/The level of expressed mRNA in the absence of chemical substance (yeast gene YBR096W, cultured two hours with the chemical substance): 1.2 | The level of expressed mRNA in the presence of chemical substance/The level of expressed mRNA in the absence of chemical substance (yeast gene YBR256C): 18.1 | The level of expressed mRNA in the presence of chemical substance/The level of expressed mRNA in the absence of chemical substance (yeast gene YCR082W, cultured two hours with substance): 4.3 | The level of expressed mRNA in the presence of chemical substance/The level of expressed mRNA in the absence of chemical substance (yeast gene YCR107W, cultured for two hours with substance): 196.6 | The level of expressed mRNA in the presence of chemical substance/The level of expressed mRNA in the absence of chemical substance (yeast gene YDL059C, DNA repair protein genes, cultured two hours with substance): 10.5 | The level of expressed mRNA in the presence of chemical substance/The level of expressed mRNA in the absence of chemical substance (yeast gene YDL072C, cultured two hours with substance): 1.1 | The level of expressed mRNA in the presence of chemical substance/The level of expressed mRNA in the absence of chemical substance (yeast gene YDL204W, cultured two hours with substance): 2.3 | The level of expressed mRNA in the presence of chemical substance/The level of expressed mRNA in the absence of chemical substance (yeast gene YDL218W, cultured two hours with substance): 72.5 | The level of expressed mRNA in the presence of chemical substance/The level of expressed mRNA in the absence of chemical substance (yeast gene YDL222C, cultured two hours with substance): 1.9 | The level of expressed mRNA in the presence of chemical substance/The level of expressed mRNA in the absence of chemical substance (yeast gene YDL234C, cultured two hours with substance): 4.6 | The level of expressed mRNA in the presence of chemical substance/The level of expressed mRNA in the absence of chemical substance (yeast gene YDL243C, cultured for two hours with substance): 64.2 | The level of expressed mRNA in the presence of chemical substance/The level of expressed mRNA in the absence of chemical substance (yeast gene YDR018C, cultured two hours with substance): 2.3 | The level of expressed mRNA in the presence of chemical substance/The level of expressed mRNA in the absence of chemical substance (yeast gene YDR031W, cultured two hours with substance): 1.1 | The level of expressed mRNA in the presence of chemical substance/The level of expressed mRNA in the absence of chemical substance (yeast gene YDR070C, cultured two hours with substance): 13.9 | The level of expressed mRNA in the presence of chemical substance/The level of expressed mRNA in the absence of chemical substance (yeast gene YDR194C, mitochondria-located protein gene, cultured two hours with substance): 2.8 | The level of expressed mRNA in the presence of chemical substance/The level of expressed mRNA in the absence of chemical substance (yeast gene YDR214W, cultured two hours with substance): 5.5 | The level of expressed mRNA in the presence of chemical substance/The level of expressed mRNA in the absence of chemical substance (yeast gene YDR253C): 14.8 | The level of expressed mRNA in the presence of chemical substance/The level of expressed mRNA in the absence of chemical substance (yeast gene YDR330W, cultured two hours with substance): 3.9 | The level of expressed mRNA in the presence of chemical substance/The level of expressed mRNA in the absence of chemical substance (yeast gene YDR340W, cultured two hours with substance): 1.4 | The level of expressed mRNA in the presence of chemical substance/The level of expressed mRNA in the absence of chemical substance (yeast gene YDR350C, cultured two hours with substance): 2.8 | The level of expressed mRNA in the presence of chemical substance/The level of expressed mRNA in the absence of chemical substance (yeast gene YDR374C, cultured two hours with substance): 10.4 | The level of expressed mRNA in the presence of chemical substance/The level of expressed mRNA in the absence of chemical substance (yeast gene YDR391C, cultured two hours with substance): 1.5 | The level of expressed mRNA in the presence of chemical substance/The level of expressed mRNA in the absence of chemical substance (yeast gene YDR411C, cultured two hours with substance): 0.7 | The level of expressed mRNA in the presence of chemical substance/The level of expressed mRNA in the absence of chemical substance (yeast gene YDR486C, cultured two hours with substance): 2.5 | The level of expressed mRNA in the presence of chemical substance/The level of expressed mRNA in the absence of chemical substance (yeast gene YDR494W, cultured two hours with substance): 1.2 | The level of expressed mRNA in the presence of chemical substance/The level of expressed mRNA in the absence of chemical substance (yeast gene YDR511W, cultured two hours with substance): 2.5 | The level of expressed mRNA in the presence of chemical substance/The level of expressed mRNA in the absence of chemical substance (yeast gene YDR513W): 4.6 | The level of expressed mRNA in the presence of chemical substance/The level of expressed mRNA in the absence of chemical substance (yeast gene YDR545W, cultured two hours with substance): 1.8 | The level of expressed mRNA in the presence of chemical substance/The level of expressed mRNA in the absence of chemical substance (yeast gene YEL001C, cultured two hours with substance): 2.0 | The level of expressed mRNA in the presence of chemical substance/The level of expressed mRNA in the absence of chemical substance (yeast gene YER004W, cultured two hours with substance): 4.5 | The level of expressed mRNA in the presence of chemical substance/The level of expressed mRNA in the absence of chemical substance (yeast gene YER035W, cultured two hours with substance): 1.2 | The level of expressed mRNA in the presence of chemical substance/The level of expressed mRNA in the absence of chemical substance (yeast gene YER038C, cultured two hours with substance): 0.7 | The level of expressed mRNA in the presence of chemical substance/The level of expressed mRNA in the absence of chemical substance (yeast gene YER079W, cultured two hours with substance): 5.3 | The level of expressed mRNA in the presence of chemical substance/The level of expressed mRNA in the absence of chemical substance (yeast gene YER096W, metabolism protein genes): 7.5 | The level of expressed mRNA in the presence of chemical substance/The level of expressed mRNA in the absence of chemical substance (yeast gene YER103W (stress protein genes)): 20.3 | The level of expressed mRNA in the presence of chemical substance/The level of expressed mRNA in the absence of chemical substance (yeast gene YER106W, cultured two hours with substance): 0.4 | The level of expressed mRNA in the presence of chemical substance/The level of expressed mRNA in the absence of chemical substance (yeast gene YER158C, cultured two hours with substance): 2.1 | The level of expressed mRNA in the presence of chemical substance/The level of expressed mRNA in the absence of chemical substance (yeast gene YER163C, cultured two hours with substance): 5.4 | The level of expressed mRNA in the presence of chemical substance/The level of expressed mRNA in the absence of chemical substance (yeast gene YER175C, cultured two hours with substance): 1.9 | The level of expressed mRNA in the presence of chemical substance/The level of expressed mRNA in the absence of chemical substance (yeast gene YFL006W, cultured two hours with substance): 3.2
